Test results published in patent US11326165B1, “Methods and compositions for modulating splicing” (SKYHAWK THERAPEUTICS, INC., priority 2017, dated 2022).

How the values were obtained:
[1] = Maximum tolerable dose study (survival, body weight); format: in vivo; settings: mice
Method: Survival of mice after administration of SMSMs after 10 or 11 days was assessed.
Tolerance of the drug treatments was determined by measuring the weight of the mice during the period of drug administration. Body weight was measured prior to tumor inoculation and prior to the treatment administration and then daily. The changes in the final weight of the mice for the SMSM treatments were determined.

[2] = tested on: A375 xenografts; assay: A375 xenografts in nude mice, tumor growth inhibition; format: in vivo; settings: A-375 xenograft (FIGS. 21A-B)
Method: (§1) Studies were performed to assess the effects of in vivo SMSM treatment on glioblastoma, breast, pancreatic, prostate, melanoma, lymphoma and Ewing sarcoma tumors. Studies were also performed to assess the effects of in vivo SMSM treatment on mRNA levels. Immunocompromised nude mice with pre-existing glioblastoma, breast, pancreatic, prostate, melanoma, lymphoma and Ewing sarcoma xenografts were treated with vehicle or SMSMs. Tumor tissues from subcutaneous xenografts were broken into a powder using a BioPulverizer (Biospec Products, Inc.). After SMSM treatment, mRNA was isolated from the xenografts and was analyzed by qRT-PCR.
(§2) Tumor size was measured 2 times per week in two dimensions using a caliper. Studies were terminated when the tumor size in the vehicle treated group reached 2,000 mm^3. Each mouse was bled at 2 hrs after the last dose and at least 50 μl of plasma was collected from each mouse. All of the collected plasma samples and retainer dosing solutions for each dose level were used for bioanalytical measurements. All tumors were also collected and weighed. One necrosis-free tumor fragment of approximately 50 mg was taken from each tumor and flash-frozen for RNA isolation. The remaining tumor was flash frozen for PK analysis.
(§3) The effects of in vivo SMSM treatments on pre-existing subcutaneous glioblastoma, breast, pancreatic, prostate, melanoma, lymphoma and Ewing sarcoma xenografts were assessed. For these in vivo experiments, 1×10^6Raji, A375, A673, MDA-MB-231, BxPC-3, PC-3 or U87 (cells re-suspended in 100 μl PBS were subcutaneously injected into the flanks of nude mice. When the tumor reached approximately 100 mm^3 (volume=(¾)(π)(length/2)(width/2)^2), the treatments indicated in the tables below were initiated.

[3] = tested on: A673 xenografts; assay: A673 xenografts in nude mice, tumor growth inhibition; format: in vivo; settings: A673 xenograft (FIGS. 20A-B)
Method: Dose range and time course studies comparing anti-neoplastic effects of SMSM−167 and SMSM−151 against vehicle were conducted.
Female NCrNu mice were used. Age range of enrolment was 7-10 weeks. A total of 75 animals were for the studies.
The A673 tumor cell line was maintained in vitro as a monolayer culture. […] The cells growing in an exponential growth phase were harvested and counted for tumor inoculation.
Each mouse were inoculated into a right flank with the single cell suspension of 95% viable tumor cells (5×10^6 cells/mouse) in serum-free RPMI 1640 Media for tumor development. Treatments were administered when mean tumor size reached approximately 75 mm^3.
Before commencement of treatment, all animals were weighed and assigned to treatment groups using a randomization procedure. Mice were randomized into groups based upon their tumor sizes to ensure that each group had approximately the same mean tumor size and range of tumor size.
After inoculation, the animals were checked daily for morbidity and mortality. At the time of routine monitoring, the animals were checked for any effects of tumor growth on normal behavior such as mobility, food and water consumption, body weight gain/loss, eye/hair matting and any other abnormal effects. Deaths and observed clinical signs were recorded.
Body weight were measured prior to tumor inoculation and prior to the treatment administration and then daily. Tumor size were measured 2-3 times per week in two dimensions using a caliper, and the volume were expressed in mm^3 using the formula: V=0.5×a×b^2 where a and b are the long and short diameters of the tumor, respectively.
as §2, with “Studies” for “Tumor size was measured 2 times per week in two dimensions using a caliper. Studies”, “plasma were” for “plasma was”
as §1, §2
as §3, with “initiated. […]” for “initiated.”

[4] = tested on: A673 cells; assay: Cell viability and proliferation, A673 cells (crystal violet); format: cell-based; settings: cell proliferation IC50 in NHDF cells over A673 cells, 72 h
Method: Small molecule splicing modulators were tested in a dose-response assay using A673 cells and NHDF cells.
A673 cells or NHDF cells were first plated in 96-well plastic tissue culture plates (10,000 cells per well). The cells were treated with vehicle alone (DMSO), or increasing concentrations of SMSM compounds for 72 h. Following treatment, cell proliferation was determined using a crystal violet assay. The relative cell proliferation at each concentration was determined.

CN(c1ccc(-c2ccc(-c3cn[nH]c3)cc2O)nn1)[C@H]1C[C@]2(C)CC[C@](C)(C1)N2 [compound 151, 2-(6-(((1R,3s,5S)-1,5-dimethyl-8-azabicyclo[3.2.1]octan-3-yl)(methyl)ami-no)pyridazin-3-yl)-5-(1H-pyrazol-4-yl)phenol]
Outcome ([1]; IP, 1 mg/kg, QDx11): All survived
Outcome ([1]; PO, 10 mg/kg, BIDx11): All survived
Outcome ([1]; PO, 10 mg/kg, QDx11): All survived
Tumor Growth Inhibition (TGI) (%) ([2]; 3 mg/kg i.p. QD *21 days, D4): 15.21%
Tumor Growth Inhibition (TGI) (%) ([2]; 3 mg/kg i.p. QD *21 days, D7): 18.86%
Tumor Growth Inhibition (TGI) (%) ([2]; 3 mg/kg i.p. QD *21 days, D11): 27.48%
Tumor Growth Inhibition (TGI) (%) ([2]; 3 mg/kg i.p. QD *21 days, D14): 41.30%
Tumor Growth Inhibition (TGI) (%) ([2]; 3 mg/kg i.p. QD *21 days, D18): 62.06%
Tumor Growth Inhibition (TGI) (%) ([2]; 3 mg/kg i.p. QD *21 days, D21): 55.77%
Tumor Growth Inhibition (TGI) (%) ([2]; 10 mg/kg p.o. BID *21 days, D4): 22.49%
Tumor Growth Inhibition (TGI) (%) ([2]; 10 mg/kg p.o. BID *21 days, D7): 28.98%
Tumor Growth Inhibition (TGI) (%) ([2]; 10 mg/kg p.o. BID *21 days, D11): 48.28%
Tumor Growth Inhibition (TGI) (%) ([2]; 10 mg/kg p.o. BID *21 days, D14): 49.06%
Tumor Growth Inhibition (TGI) (%) ([2]; 10 mg/kg p.o. BID *21 days, D18): 58.41%
Tumor Growth Inhibition (TGI) (%) ([2]; 10 mg/kg p.o. BID *21 days, D21): 50.32%
Tumor Growth Inhibition (TGI) (%) ([2]; SMSM-151 group 1.5 mg/kg i.p. BID *21 days, D4): 21.81%
Tumor Growth Inhibition (TGI) (%) ([2]; SMSM-151 group 1.5 mg/kg i.p. BID *21 days, D7): 13.08%
Tumor Growth Inhibition (TGI) (%) ([2]; SMSM-151 group 1.5 mg/kg i.p. BID *21 days, D11): 24.17%
Tumor Growth Inhibition (TGI) (%) ([2]; SMSM-151 group 1.5 mg/kg i.p. BID *21 days, D14): 34.70%
Tumor Growth Inhibition (TGI) (%) ([2]; SMSM-151 group 1.5 mg/kg i.p. BID *21 days, D18): 39.27%
Tumor Growth Inhibition (TGI) (%) ([2]; SMSM-151 group 1.5 mg/kg i.p. BID *21 days, D21): 36.89%
Tumor Growth Inhibition (TGI) (%) ([3]; 10 mg/kg BID p.o., Day 3): 28.03%
Tumor Growth Inhibition (TGI) (%) ([3]; 10 mg/kg BID p.o., Day 6): 34.29%
Tumor Growth Inhibition (TGI) (%) ([3]; 10 mg/kg BID p.o., Day 10): 22.09%
Tumor Growth Inhibition (TGI) (%) ([3]; 10 mg/kg BID p.o., Day 13): 30.12%
Tumor Growth Inhibition (TGI) (%) ([3]; 20 mg/kg BID p.o., Day 3): 37.61%
Tumor Growth Inhibition (TGI) (%) ([3]; 20 mg/kg BID p.o., Day 6): 45.97%
Tumor Growth Inhibition (TGI) (%) ([3]; 20 mg/kg BID p.o., Day 10): 55.24%
Tumor Growth Inhibition (TGI) (%) ([3]; 20 mg/kg BID p.o., Day 13): 71.29%
Tumor Growth Inhibition (TGI) (%) ([3]; 30 mg/kg QD p.o., Day 3): 23.90%
Tumor Growth Inhibition (TGI) (%) ([3]; 30 mg/kg QD p.o., Day 6): 34.28%
Tumor Growth Inhibition (TGI) (%) ([3]; 30 mg/kg QD p.o., Day 10): 17.11%
Tumor Growth Inhibition (TGI) (%) ([3]; 30 mg/kg QD p.o., Day 13): 23.52%
Ratio NHDF/A673 IC50 [4]: >350
